Assay results taken from patent US9962351B2, “Small molecule substance for improving sensitivity of bacteria to antibiotics” (priority 2012, dated 2018).
In brackets after ≈: the same amount, converted by molar mass. Like-named read-outs stand apart in the source and are kept apart here.

Tests used:
[1] = system: Escherichia coli K12 BW25113; test: MIC by double dilution method, initial bacteria; format: cell-based; settings: for MIC: Escherichia coli, BW25113, read-out: MIC0
Method: (§1) Escherichia coli is a bacterium that is most commonly found in the gut of human and animal. It mainly parasitizes in the intestines, and accounts for about 1% of the intestine bacteria. Minimum inhibitory concentration (MIC) of Escherichia coli K12 BW25113 for ten kinds of antibiotics was detected with double dilution method. Escherichia coli K12 BW25113 of 10^5 colony forming unit/ml was cultured respectively in Luria-Bertani (LB) liquid medium separately with each of ten antibiotics at the concentration of ½ MIC at 37° C., and was serially passaged 10 times, so that the MIC of single colony was determined.

[2] = system: antibiotic-resistant Escherichia coli (passaged K12 BW25113); test: MIC of single colony after 10 serial passages with antibiotic at 1/2 MIC; format: cell-based; settings: for MIC: Escherichia coli, BW25113, read-out: MIC10; for MIC10/MIC0: ratio of MIC after to before passage
Method: as §1

[3] = system: ampicillin-resistant Escherichia coli (AMP-R); format: cell-based
Method: Bacterium cultures of 20 mL were collected and centrifuged at 8,000 rpm for 5 minutes. The bacterial pellets were washed with equal volume of 0.85% saline solution, suspended in M9 medium containing 10 mM sodium acetate and then adjusted to OD600 of 0.5. […] These mixtures were cultured in a shaker at 200 rpm at 37° C. for 4 h. Then 100 μL of bacterial suspension was used for bacterial plate counting.
To investigate the effect of antibiotic dose on the sensitivity of bacteria to antibiotics by glutamine, 20 mM glutamine and 20, 40, 80, 160, 240, 320 and 400 μg/mL ampicillin were used to treat ampicillin-resistant Escherichia coli for 4 hours, and then bacterial plate counting was conducted. The survival rates of bacteria with and without glutamine were compared at the same antibiotic concentration.
To investigate the effect of exposure time on the killing efficiency, the viable counts of bacteria were counted during 1-8 hours after spiked with 20 mM glutamine and 160 μg/mL ampicillin.
To investigate the effect of glutamine concentration on killing efficiency and the optimum bactericidal concentrations, different concentrations of glutamine were added to 160 μg/mL ampicillin. The number of live bacteria was counted after 4 hours. The survival rate was calculated according to the formula below: viable counts at different concentration of glutamine/viable counts without glutamine×100%.
Single clone of ampicillin-resistant Escherichia coli was selected and inoculated in 100 mL LB medium and cultured at 200 rpm at 37° C. for 16 hours. Bacterial suspension of 20 mL was collected and centrifuged at 8,000 rpm for 5 min. The resulting bacterial pellets were washed with equal volume of 0.85% saline solution, suspended in M9 medium containing 10 mM sodium acetate and then adjusted to […] of 0.5. Aliquots of 5 mL bacterial cells were transferred to test tubes for further application.
The sample was added with 160 μg/mL ampicillin and 0-20 Mm glucose, then cultured in a shaker at 200 rpm at 37° C. for 4 hours. The cell number was counted and survival rate was calculated. […]

[4] = system: Escherichia coli K12 BW25113 (control bacteria); test: Viable counts and survival rate of control bacteria; format: cell-based; settings: 160 μg/mL ampicillin, without or with 20 mM glutamine, 4 hours
Method: The viable counts and survival rate of bacteria were calculated after added with 20 mM glutamine and 160 μg/mL ampicillin for 4 hours.
The viable counts and survival rate of bacteria were calculated after added with 20 mM glutamine and 4 kinds of penicillins (does for control bacteria were: ampicillin 25 μg/mL, penicillin G 200 μg/mL, amoxicillin 20 μg/mL, carbenicillin 100 μg/mL; does for antibiotic resistant bacteria were: ampicillin 320 μg/mL, penicillin G 2560 μg/mL, amoxicillin 512 μg/mL, carbenicillin 320 μg/mL) for 4 hours.
The viable counts and survival rate of bacteria were calculated after added with 20 mM glutamine and antibiotics at the concentration of 8 times of MIC for 4 hours.

[5] = system: ampicillin-resistant Escherichia coli biofilm; test: Biofilm on PE-50 catheters in vitro, survival rate; format: cell-based; settings: 6 hours
Method: (§2) Single clone of ampicillin-resistant Escherichia coli was selected and incubated in LB medium overnight, then transferred into 2 mL fresh LB medium according to the proportion of 1:200 dilutions and transferred to 6 mm ultraviolet sterilized PE-50 catheters. The catheters were inoculated in 1 mL LB at 37 for 24 h. The culture medium was changed every 24 hours for 3 days. The biofilm of ampicillin-resistant bacteria in PE50 catheters were washed with 1 mL sterile phosphate-buffered saline five times to remove loosely adherent cells, and then transferred to 1.5 mL EP tubes.
The test was divided into six groups: saline solution control, 20 mM glutamine, 160 μg/mL ampicillin, 160 μg/mL ampicillin plus 20 mM glutamine, 160 μg/mL ampicillin plus 20 mM glucose, 160 μg/mL ampicillin plus 20 mM glutamine and 20 mM glucose. The catheters were cultured in a shaker at 200 rpm at 37 for 6 hours. The bacterial biofilm was removed from catheters with sonication for 10 minutes. Serial dilutions and spot-plating were performed to determine the cell number. The bacterial survival rate was calculated as: viable counts in treatment group/viable counts in control group×100%.

[6] = system: ampicillin-resistant Escherichia coli biofilm; test: Mouse urinary tract catheter biofilm model, bacterial survival rate in biofilm; format: in vivo; settings: mice, tail intravenous injection twice-daily for 3 days; glutamine 100 mg kg−1, glucose 100 mg kg−1, ampicillin 320 mg kg−1 as present
Method: as §2
In vivo experiments in mice, female mice (5 weeks, weighing 18-20 g) received surgical implantation in the urinary tract of PESO catheter tubes. The mice were randomly divided into six groups in 48 h after the surgery, five each group. The six groups included treatment with saline (group 1), 100 mg kg^−1 glutamine (group 2), 320 mg kg^−1 ampicillin (group 3), 100 mg kg^−1 glutamine plus 320 mg kg^−1 ampicillin (group 4), 100 mg kg^−1 glucose plus 320 mg kg^−1 ampicillin (group 5), and 100 mg kg^−1 glutamine and 100 mg kg^−1 glucose plus 320 mg kg^−1 ampicillin (group 6) by tail intravenous injection for 3 days, twice-daily. Catheter tubes were extracted in 24 hours after the last treatment. […] The survival rate was calculated as: viable counts in treatment group/viable counts in control group×100%.

[7] = system: antibiotic-resistant bacteria in kidneys; test: Mouse urinary tract infection model, bacterial content in kidneys; format: in vivo; settings: mice, tail i.v. twice-daily for 3 days; glutamine 100 mg kg−1, glucose 100 mg kg−1, ampicillin 320 mg kg−1 as present; saline group 16750
Method: In vivo experiments in mice, female mice (5 weeks, weighing 18-20 g) received surgical implantation in the urinary tract of PESO catheter tubes. The mice were randomly divided into six groups in 48 h after the surgery, five each group. The six groups included treatment with saline (group 1), 100 mg kg^−1 glutamine (group 2), 320 mg kg^−1 ampicillin (group 3), 100 mg kg^−1 glutamine plus 320 mg kg^−1 ampicillin (group 4), 100 mg kg^−1 glucose plus 320 mg kg^−1 ampicillin (group 5), and 100 mg kg^−1 glutamine and 100 mg kg^−1 glucose plus 320 mg kg^−1 ampicillin (group 6) by tail intravenous injection for 3 days, twice-daily. Catheter tubes were extracted in 24 hours after the last treatment. To dislodge biofilm cells, catheters were suspended in saline solution with ultrasonic. Serial dilutions and spot-plating were performed to determine the bacterial survival rate in biofilm. The survival rate was calculated as: viable counts in treatment group/viable counts in control group×100%.
Meanwhile, kidneys of mice were homogeneous with appropriate amount of saline. Bacterial content in kidneys was determined by plate counting method.

Compound: NC[C@H]1O[C@H](O[C@H]2[C@H](O)[C@@H](O[C@H]3O[C@H](CO)[C@@H](O)[C@H](N)[C@H]3O)[C@H](N)C[C@@H]2N)[C@H](O)[C@@H](O)[C@@H]1O [KAN, kanamycin]
- MIC [1]: 6.25 µg/mL (≈ 12.9 µM)
- MIC [2]: 400 µg/mL
- MIC10/MIC0 [2]: 64

Compound: CN(C)[C@@H]1C(O)=C(C(N)=O)C(=O)[C@@]2(O)C(O)=C3C(=O)c4c(O)cccc4[C@@](C)(O)[C@H]3C[C@@H]12 [TET, tetracycline]
- MIC [1]: 3.12 µg/mL (≈ 7.03 µM)
- MIC [2]: 200 µg/mL

Compound: O=C(N[C@H](CO)[C@H](O)c1ccc([N+](=O)[O-])cc1)C(Cl)Cl [CAP, chloramphenicol]
- MIC [1]: 6.8 µg/mL (≈ 21 µM)
- MIC [2]: 435 µg/mL
- MIC10/MIC0 [2]: 64

Compound: gentamicin
- MIC0 ([1]; before passage): 1.25 µg/mL
- MIC10 ([2]; after 10 serial passages in LB with the respective antibiotic at 1/2 MIC, 37° C.): 80 µg/mL
- MIC10/MIC0 [2]: 64

Compound: CC(C)(O/N=C(\C(=O)N[C@@H]1C(=O)N2C(C(=O)[O-])=C(C[n+]3ccccc3)CS[C@H]12)c1csc(N)n1)C(=O)O [CAZ, ceftazidime]
- MIC [1]: 0.125 µg/mL (≈ 0.229 µM)
- MIC [2]: 8 µg/mL

Compound: CCn1cc(C(=O)O)c(=O)c2ccc(C)nc21 [NA, nalidixic acid]
- MIC [1]: 5 µg/mL (≈ 21.5 µM)
- MIC [2]: 320 µg/mL
- MIC10/MIC0 [2]: 64

Compound: CC1(C)S[C@@H]2[C@H](NC(=O)[C@H](N)c3ccccc3)C(=O)N2[C@H]1C(=O)O [ampicillin]
- MIC [1]: 6.25 µg/mL (≈ 17.9 µM)
- MIC [2]: 400 µg/mL
- MIC10/MIC0 [2]: 64
- survival rate ([3]; 20 μg/mL ampicillin, without or with 20 mM glutamine, 4 hours): 99.81%
- survival rate ([3]; 40 μg/mL ampicillin, without or with 20 mM glutamine, 4 hours): 97.27%
- survival rate ([3]; 80 μg/mL ampicillin, without or with 20 mM glutamine, 4 hours): 95.55%
- survival rate ([3]; 160 μg/mL ampicillin without glutamine, 7 hours): 74%
- survival rate ([3]; 160 μg/mL ampicillin without glutamine, after 8 hours): 66.19%
- viable counts of bacteria ([3]; 160 μg/mL ampicillin without glutamine, during 1-4 hours): remained unchanged
- survival rate ([3]; 160 μg/mL ampicillin, without glucose or with increasing glucose (0-20 Mm), 4 hours): 94.33%
- survival rate ([3]; 160 μg/mL ampicillin, without glutamine or with increasing glutamine concentration, 4 hours): 94.33%
- survival rate ([3]; 160 μg/mL ampicillin, without or with 20 mM glutamine, 4 hours): 93.72%
- survival rate ([3]; 240 μg/mL ampicillin, without or with 20 mM glutamine, 4 hours): 86.72%
- survival rate ([3]; 320 μg/mL ampicillin, without or with 20 mM glutamine, 4 hours): 83.51%
- survival rate ([3]; 400 μg/mL ampicillin, without or with 20 mM glutamine, 4 hours): 67.15%
- survival rate [4]: 74.22%
- elimination of biofilm by single agent ([5]; 20 mM glutamine or 160 μg/mL ampicillin alone): did not eliminate the antibiotic-resistant bacterium biofilm
- bacterial survival rate in biofilm (treatment group/saline control) ([5]; 20 mM glutamine, 160 μg/mL ampicillin, 20 mM glucose as present): 92.84%
- bacterial survival rate in catheter biofilm in comparison with saline control [6]: 76.81%
- bacterial content in kidneys [7]: 9129 cell/g

Compound: CC[C@H]1OC(=O)[C@H](C)[C@@H](O[C@H]2C[C@@](C)(OC)[C@@H](O)[C@H](C)O2)[C@H](C)[C@@H](O[C@@H]2O[C@H](C)C[C@H](N(C)C)[C@H]2O)[C@](C)(O)C[C@@H](C)C(=O)[C@H](C)[C@@H](O)[C@]1(C)O [ER, erythromycin]
- MIC [1]: 50 µg/mL (≈ 68.1 µM)
- MIC [2]: 3200 µg/mL
- MIC10/MIC0 [2]: 64

Compound: [H]/N=C(/N)N[C@H]1[C@H](O)[C@@H](O)[C@H](O[C@@H]2O[C@@H](C)[C@](O)(C=O)[C@H]2O[C@@H]2O[C@@H](CO)[C@H](O)[C@@H](O)[C@@H]2NC)[C@@H](N/C(N)=N\[H])[C@@H]1O [SM, streptomycin]
- MIC [1]: 6.25 µg/mL (≈ 10.7 µM)
- MIC [2]: 400 µg/mL
- MIC10/MIC0 [2]: 64

Compound: CNC1CCCN(c2c(F)cc3c(=O)c(C(=O)O)cn(C4CC4)c3c2OC)C1 (stereo not drawn) [BLFX, balofloxacin]
- MIC [1]: 0.25 µg/mL (≈ 0.642 µM)
- MIC [2]: 16 µg/mL
- MIC10/MIC0 [2]: 64
